From patent publication US10023593B2, “ALK kinase inhibitor, and preparation method and uses thereof” (BEIJING PEARL BIOTECHNOLOGY LIMITED LIABILITY COMPANY, priority 2014, dated 2018)

Tests used:
Wild Type ALK kinase = target: T1, Wild Type ALK kinase (Homo sapiens, UniProt Q9UM73); assay: HTRF KinEASE-TK assay, inhibitory activity on wild type ALK kinase; format: biochemical; conditions: wild type ALK 1 ng/μl, substrate 1 μM, 30° C. 35 minutes, read-out: Inhibition on ALK kinases (wildtype), IC50
T1 construct: purchased Sino-US Crown Bioscience, Inc. batch number ALK 20110607
Description: 1. Inhibitory Activities of the Compounds of the Present Invention on Wild Type ALK Kinases
? experimental method ? HTRF KinEASE™-TK Assay kit from Cisbio company was used to detect inhibitory activities of the compounds on wildtype ALK kinases (wild type ALK kinases).
(§1) ? instrument ? Envision 2104 plate reader from PerKinElmer company.
(§2) ? experiment material ? HTRF KinEASE™-TK Assay Kit (Cisbio company, catalog No. 62TK0PEC); Wild Type ALK kinase (produced by Sino-US Crown Bioscience, Inc., batch number ALK 20110607); DTT (Gibco BRL company, catalog No. 15508-012); MgCl2 (Sigma Aldrich company, catalog No. M-2670); ATP (Sigma Aldrich company, catalog No. A-7699); DMSO (AMRESCO company, catalog No. 0231); EDTA (AMRESCO company, catalog No. 0105); 96 wells plates (for diluting compounds) (CITOTEST company, catalog No. Ref36020096D); OptiPlate™-384 (White), PerkinElmer company, catalog No. P12-004)
(§3) ? experimental condition ? Compounds (the final concentration of DMSO was 1%), the reaction substrate (the final concentration was 1 μM), ATP (the final concentration was 2004), and Wildtype ALK kinases (the final concentration was 1 ng/μl) were mixed respectively in a final volume of 10 μl reaction system (containing 5 mM MgCl2, 1× Kinase buffer, and 1 mM DTT). The mixture was reacted at 30° C. for 35 minutes after shaking for 30 seconds. After completion of the reaction, each well was added with 5 μl Sa-XL665 and 5 μl TK Antibody-Eu(K), and placed in the dark for 60 minutes to end the reaction after uniform mixing. The data was read from PerkinElmer EnVision plate reader ([…]), the 665/615 ratio was calculated, and the data was analyzed.
(§4) ? tested samples ? Compounds from the examples.
(§5) ? data analysis ? Minimum 665/615 ratio (Rmin, 665/615 ratio under the condition that 10.4 μM positive control drug LDK-378 was added)
(§6) Maximum 665/615 ratio (Rmax, 665/615 ratio under the condition that no compound was added)
(§7) Tested 665/615 ratio (Rcompound, 665/615 ratio under the condition that a given concentration of compound was added) Inhibition rate (%)=[1−(Rcompound−Rmin)/(Rmax−Rmin)]×100
(§8) ? data processing ? IC50 of compounds was calculated by using XLfit program in Excel.

L1196M mutant ALK kinase = target: T2, L1196M mutant ALK kinase (Homo sapiens, UniProt Q9UM73, L1196M); assay: HTRF KinEASE-TK assay, inhibitory activity on L1196M mutant ALK kinase; format: biochemical; conditions: L1196M mutant ALK 1 ng/μl, substrate 1 μM, ATP 5 μM, 30° C. 35 minutes, read-out: Inhibition on ALK kinases (L1196M mutant), IC50
T2 construct: purchased Sino-US Crown Bioscience, Inc. batch number ALKm_20110923
Description: 2. Inhibitory Activities of the Compounds of the Present Invention on L1196M Mutant ALK Kinases
? experimental method ? HTRF KinEASE™-TK Assay kit from Cisbio company was used to detect inhibitory activities of the compounds on L1196M mutant ALK kinases.
as §1
as §2, with “L1196M mutant” for “Wild Type”, “ALKm_20110923);” for “ALK 20110607);”, “A-7699, batch number 051M7014V);” for “A-7699);”
as §3, with “5 μM),” for “2004),”, “L1196M mutant” for “Wildtype”
as §4, §5, §6, §7, §8

NCI-H2228 cell line = assay: CellTiter-Glo cell proliferation inhibition on NCI-H2228 cell line; format: cell-based; conditions: Homo sapiens, NCI-H2228, 96 h, NCI-H2228 cells, 5000 cells/well, 4 days drug treatment
In short: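 NCI-H2228 cells, 5000/well in RPMI-1640 + 10% FBS, treated with compounds 2 h after seeding (0.5% DMSO final) for 4 days at 37° C. Viability by CellTiter-Glo luminescence; inhibition relative to DMSO control, IC50 from curve fit.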

T2 sequence (Q9UM73 19-1620 L1196M): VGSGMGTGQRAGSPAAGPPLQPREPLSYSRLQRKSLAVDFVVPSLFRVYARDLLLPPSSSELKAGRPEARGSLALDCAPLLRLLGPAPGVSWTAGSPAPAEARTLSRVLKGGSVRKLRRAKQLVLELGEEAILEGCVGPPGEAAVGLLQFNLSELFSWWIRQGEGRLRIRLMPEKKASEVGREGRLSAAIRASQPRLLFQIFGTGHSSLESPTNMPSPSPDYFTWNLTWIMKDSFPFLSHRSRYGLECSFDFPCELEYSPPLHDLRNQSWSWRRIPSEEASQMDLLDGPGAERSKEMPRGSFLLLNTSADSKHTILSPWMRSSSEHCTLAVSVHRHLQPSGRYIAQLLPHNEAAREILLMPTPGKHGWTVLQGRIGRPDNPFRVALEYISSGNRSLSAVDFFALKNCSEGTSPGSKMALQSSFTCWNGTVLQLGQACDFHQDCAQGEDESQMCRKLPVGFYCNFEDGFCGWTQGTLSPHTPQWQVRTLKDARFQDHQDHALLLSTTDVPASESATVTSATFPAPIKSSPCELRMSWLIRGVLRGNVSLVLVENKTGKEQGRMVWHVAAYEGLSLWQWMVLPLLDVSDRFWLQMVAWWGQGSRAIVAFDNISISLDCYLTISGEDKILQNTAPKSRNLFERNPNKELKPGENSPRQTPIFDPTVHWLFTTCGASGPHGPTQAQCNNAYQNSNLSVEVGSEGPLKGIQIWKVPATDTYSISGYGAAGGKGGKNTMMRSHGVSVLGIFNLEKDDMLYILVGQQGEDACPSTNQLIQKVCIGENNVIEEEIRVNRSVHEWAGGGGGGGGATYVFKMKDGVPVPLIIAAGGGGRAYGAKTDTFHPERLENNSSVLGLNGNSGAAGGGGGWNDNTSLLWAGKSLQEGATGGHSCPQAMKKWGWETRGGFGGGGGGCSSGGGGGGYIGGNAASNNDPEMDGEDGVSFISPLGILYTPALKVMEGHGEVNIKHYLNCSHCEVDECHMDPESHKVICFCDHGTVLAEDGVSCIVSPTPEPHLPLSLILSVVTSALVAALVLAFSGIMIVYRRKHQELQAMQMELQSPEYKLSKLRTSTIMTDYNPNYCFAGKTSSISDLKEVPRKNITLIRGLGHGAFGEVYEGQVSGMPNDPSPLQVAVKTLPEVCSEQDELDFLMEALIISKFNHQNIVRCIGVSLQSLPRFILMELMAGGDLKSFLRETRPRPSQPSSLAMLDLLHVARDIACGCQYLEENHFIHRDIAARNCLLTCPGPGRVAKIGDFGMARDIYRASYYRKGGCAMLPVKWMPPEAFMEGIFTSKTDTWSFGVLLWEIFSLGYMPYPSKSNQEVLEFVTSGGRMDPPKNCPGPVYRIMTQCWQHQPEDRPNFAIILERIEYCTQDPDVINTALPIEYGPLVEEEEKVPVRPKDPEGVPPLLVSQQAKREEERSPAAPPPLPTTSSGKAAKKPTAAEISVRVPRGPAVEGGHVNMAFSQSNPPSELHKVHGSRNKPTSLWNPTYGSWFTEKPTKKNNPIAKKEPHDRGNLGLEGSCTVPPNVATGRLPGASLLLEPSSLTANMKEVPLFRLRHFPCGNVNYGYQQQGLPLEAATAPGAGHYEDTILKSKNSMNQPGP
T1 sequence (Q9UM73 19-1620): as the sequence (Q9UM73 19-1620 L1196M) above, with M1178L counted along it

IC50 (Wild Type ALK kinase) | IC50 (L1196M mutant ALK kinase) | IC50 (NCI-H2228 cell line) | SMILES
26 nM | 29 nM | 149 nM | Cc1cc(Nc2ncc(Cl)c(Nc3cn(C)nc3S(=O)(=O)C(C)C)n2)c(OC2CC2)cc1C1CCN(C(=O)C(C)C)CC1 [Final product 163, 1-isobutyryl-4-(4-(5-chloro-4-(3-(isopropylsulfonyl)-1-methyl-1H-pyrazol-4-amino)pyrimidin-2-amine)-5-cyclopropoxy-2-methylphenyl)piperidine]
2 nM | 15 nM | 76 nM | Cc1cc(Nc2ncc(Cl)c(Nc3cn(C)nc3S(=O)(=O)C3CCC3)n2)c(OC2CC2)cc1C1CCN(C)CC1 [Final product 52]
1 nM | 6 nM | 69 nM | Cc1cc(Nc2ncc(C)c(Nc3cn(C)nc3S(=O)(=O)C(C)C)n2)c(OC2CC2)cc1C1CCN(C)CC1 [Final product 72]
28 nM | 39 nM | 1040 nM | Cc1cc(Nc2nc(Nc3cc(C)c(C4CCN(CCO)CC4)cc3C)ncc2Cl)n[nH]1 [Final product 215, reference compound]
6 nM | 22 nM | 150 nM | Cc1nc(S(=O)(=O)C(C)C)c(Nc2nc(Nc3cc(C)c(C4CCN(C)CC4)cc3OC3CC3)ncc2Cl)s1 [Final product 113]
27 nM | 49 nM | 1070 nM | Cc1cc(Nc2nc(Nc3cc(C)c([C@H]4CC[C@H](N5CCN(C)CC5)CC4)cc3F)ncc2Cl)[nH]n1 [Final product 218, reference compound]
9 nM | 12 nM | 68 nM | CCN(CC)[C@H]1CC[C@H](c2cc(OC3CC3)c(Nc3ncc(Cl)c(Nc4cn(C)nc4S(=O)(=O)C(C)C)n3)cc2C)CC1 [Final product 192]
2 nM | 5 nM | 48 nM | Cc1cc(Nc2ncc(Cl)c(Nc3cn(C)nc3S(=O)(=O)C(C)C)n2)c(OC2CC2)cc1C1CCN(C)C(C)C1 (stereo not drawn) [Final product 92]
22 nM | 54 nM | 1240 nM | Cc1cc(Nc2nc(Nc3cc(C)c(C4CCCNC4)cc3C)ncc2Cl)n[nH]1 (stereo not drawn) [Final product 214, reference compound]
17 nM | 28 nM | 948 nM | CNC(=O)CN1CCC(c2cc(OC)c(Nc3ncc(Cl)c(Nc4cc(C)n[nH]4)n3)cc2C)CC1 [Final product 216, reference compound]
13 nM | 37 nM | 725 nM | Cc1cc(Nc2nc(Nc3cc(C)c(C4CCN(C)CC4)cc3OC(C)C)ncc2Cl)n[nH]1 [Final product 212, 5-chloro-N^2-[2-isopropoxy-4-(1-methyl-piperidin-4-yl)-5-methyl-phenyl]-N^4-[5-methyl-1H-pyrazol-3-yl]-pyrimidin-2,4-diamine, reference compound]
2 nM | 4 nM | 87 nM | Cc1cc(Nc2ncc(C#N)c(Nc3cn(C)nc3S(=O)(=O)C(C)C)n2)c(OC2CC2)cc1C1CCN(C)CC1 [Final product 210, N^2-[2-cyclopropoxy-4-(1-methyl-piperidin-4-yl)-5-methyl-phenyl]-N^4-[1-methyl-3-(isopropylsulfonyl)-1H-pyrazol-4-yl]-5-(cyano)pyrimidin-2,4-diamine]
19 nM | 22 nM | 964 nM | Cc1cc(Nc2nc(Nc3cc(C)c(C4CCN(C(C)C)CC4)cc3C)ncc2Cl)n[nH]1 [Final product 213, reference compound]
3 nM | 9 nM | 71 nM | Cc1cc(Nc2ncc(C(F)(F)F)c(Nc3cn(C)nc3S(=O)(=O)C(C)C)n2)c(OC2CC2)cc1C1CCN(C)CC1 [Final product 209, N^2-[2-cyclopropoxy-4-(1-methyl-piperidin-4-yl)-5-methylphenyl]-N^4-[1-methyl-3-(isopropylsulfonyl)-1H-pyrazol-4-yl]-5-(trifluoromethyl)pyrimidin-2,4-diamine]
12 nM | 28 nM | 660 nM | Cc1cc(Nc2ncc(Cl)c(Nc3cn(C)nc3S(=O)(=O)C(C)C)n2)c(C(C)C)cc1C1CCN(C)CC1 [Final product 33]
